The values below are quoted from earlier work in patent publication US20190046468A1 (SUN PHARMACEUTICAL INDUSTRIES LIMITED, priority 2017, published 2019).

For data set [1] the following is noted: in vivo.
For data set [2] the following is noted: aqueous media and many other solvents including acetone.

As to `COc1ccccc1OCC(O)CO` (centres unmarked) [Guaifenesin], the plasma half-life result in data set [1] is recorded as “about 1 hour”. Moreover, the solubility entry in data set [2] is given as “freely soluble”.
